Data reported in patent US9828360B2 (Array BioPharma Inc., priority 2012, dated 2017).

What was measured:
Assay in all cases: KinaseProfiler off-target kinase profiling
Assay type in all cases: biochemical
Conditions in all cases: 10 μM, ATP near Km
Fyn = target: T1, Fyn (Homo sapiens, UniProt P06241)
T1 construct: purchased Millipore, Inc. (KinaseProfiler service)
Method in brief: (§1)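 Panel-wide off-target screen: one concentration (10 μM), duplicate determinations, ATP approximately at Km for the individual kinase; output POC, duplicate mean.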

CDK5/p25 = target: T2, CDK5/p25 (Homo sapiens, UniProt Q00535)
T2 construct: purchased Millipore, Inc. (KinaseProfiler service)
Method in brief: as §1

MAP4K2 = target: T3, MAP4K2 (Homo sapiens, UniProt Q12851)
T3 construct: purchased Millipore, Inc. (KinaseProfiler service)
Method in brief: as §1

MINK = target: T4, MINK (Homo sapiens, UniProt Q8N4C8)
T4 construct: purchased Millipore, Inc. (KinaseProfiler service)
Method in brief: as §1

CDK3/cyclinE = target: T5, CDK3/cyclinE (Homo sapiens, UniProt Q00526)
T5 construct: purchased Millipore, Inc. (KinaseProfiler service)
Method in brief: as §1

NEK6 = target: T6, NEK6 (Homo sapiens, UniProt Q9HC98)
T6 construct: purchased Millipore, Inc. (KinaseProfiler service)
Method in brief: as §1

Met = target: T7, Met (Homo sapiens, UniProt P08581)
T7 construct: purchased Millipore, Inc. (KinaseProfiler service)
Method in brief: as §1

LIMK1 = target: T8, LIMK1 (Homo sapiens, UniProt P53667)
T8 construct: purchased Millipore, Inc. (KinaseProfiler service)
Method in brief: as §1

TAK1 = target: T9, TAK1 (Homo sapiens, UniProt O43318)
T9 construct: purchased Millipore, Inc. (KinaseProfiler service)
Method in brief: as §1

ARK5 = target: T10, ARK5 (Homo sapiens, UniProt O60285)
T10 construct: purchased Millipore, Inc. (KinaseProfiler service)
Method in brief: as §1

HIPK3 = target: T11, HIPK3 (Homo sapiens, UniProt Q9H422)
T11 construct: purchased Millipore, Inc. (KinaseProfiler service)
Method in brief: as §1

JNK2alpha2 = target: T12, JNK2alpha2 (Homo sapiens, UniProt P45984)
T12 construct: purchased Millipore, Inc. (KinaseProfiler service)
Method in brief: as §1

PKCdelta = target: T13, PKCdelta (Homo sapiens, UniProt Q05655)
T13 construct: purchased Millipore, Inc. (KinaseProfiler service)
Method in brief: as §1

PKCtheta = target: T14, PKCtheta (Homo sapiens, UniProt Q04759)
T14 construct: purchased Millipore, Inc. (KinaseProfiler service)
Method in brief: as §1

FGFR2 = target: T15, FGFR2 (Homo sapiens, UniProt P21802)
T15 construct: purchased Millipore, Inc. (KinaseProfiler service)
Method in brief: as §1

EphA8 = target: T16, EphA8 (Homo sapiens, UniProt P29322)
T16 construct: purchased Millipore, Inc. (KinaseProfiler service)
Method in brief: as §1

SRC = target: T17, SRC (Homo sapiens, UniProt P12931)
T17 construct: purchased Millipore, Inc. (KinaseProfiler service)
Method in brief: as §1

PAK2 = target: T18, PAK2 (Homo sapiens, UniProt Q13177)
T18 construct: purchased Millipore, Inc. (KinaseProfiler service)
Method in brief: as §1

Pim-2 = target: T19, Pim-2 (Homo sapiens, UniProt Q9P1W9)
T19 construct: purchased Millipore, Inc. (KinaseProfiler service)
Method in brief: as §1

NEK7 = target: T20, NEK7 (Homo sapiens, UniProt Q8TDX7)
T20 construct: purchased Millipore, Inc. (KinaseProfiler service)
Method in brief: as §1

Plk2 = target: T21, Plk2 (Homo sapiens, UniProt Q9NYY3)
T21 construct: purchased Millipore, Inc. (KinaseProfiler service)
Method in brief: as §1

Fgr = target: T22, Fgr (Homo sapiens, UniProt P09769)
T22 construct: purchased Millipore, Inc. (KinaseProfiler service)
Method in brief: as §1

VRK2 = target: T23, VRK2 (Homo sapiens, UniProt Q86Y07)
T23 construct: purchased Millipore, Inc. (KinaseProfiler service)
Method in brief: as §1

MYLK = target: T24, MYLK (Homo sapiens, UniProt Q15746)
T24 construct: purchased Millipore, Inc. (KinaseProfiler service)
Method in brief: as §1

DRAK1 = target: T25, DRAK1 (Homo sapiens, UniProt Q9UEE5)
T25 construct: purchased Millipore, Inc. (KinaseProfiler service)
Method in brief: as §1

CDK1/cyclinB = target: T26, CDK1/cyclinB (Homo sapiens, UniProt P06493)
T26 construct: purchased Millipore, Inc. (KinaseProfiler service)
Method in brief: as §1

p38gamma = target: T27, p38gamma (Homo sapiens, UniProt P53778)
T27 construct: purchased Millipore, Inc. (KinaseProfiler service)
Method in brief: as §1

FAK2 = target: T28, FAK2 (Homo sapiens, UniProt Q14289)
T28 construct: purchased Millipore, Inc. (KinaseProfiler service)
Method in brief: as §1

ULK2 = target: T29, ULK2 (Homo sapiens, UniProt Q8IYT8)
T29 construct: purchased Millipore, Inc. (KinaseProfiler service)
Method in brief: as §1

PRKG1alpha = target: T30, PRKG1alpha (Homo sapiens, UniProt Q13976)
T30 construct: purchased Millipore, Inc. (KinaseProfiler service)
Method in brief: as §1

ALK = target: T31, ALK (Homo sapiens, UniProt Q9UM73)
T31 construct: purchased Millipore, Inc. (KinaseProfiler service)
Method in brief: as §1

LKB1 = target: T32, LKB1 (Homo sapiens, UniProt Q15831)
T32 construct: purchased Millipore, Inc. (KinaseProfiler service)
Method in brief: as §1

SRPK1 = target: T33, SRPK1 (Homo sapiens, UniProt Q96SB4)
T33 construct: purchased Millipore, Inc. (KinaseProfiler service)
Method in brief: as §1

TrkB = target: T34, TrkB (Homo sapiens, UniProt Q16620)
T34 construct: purchased Millipore, Inc. (KinaseProfiler service)
Method in brief: as §1

T34 sequence (Q16620 32-822): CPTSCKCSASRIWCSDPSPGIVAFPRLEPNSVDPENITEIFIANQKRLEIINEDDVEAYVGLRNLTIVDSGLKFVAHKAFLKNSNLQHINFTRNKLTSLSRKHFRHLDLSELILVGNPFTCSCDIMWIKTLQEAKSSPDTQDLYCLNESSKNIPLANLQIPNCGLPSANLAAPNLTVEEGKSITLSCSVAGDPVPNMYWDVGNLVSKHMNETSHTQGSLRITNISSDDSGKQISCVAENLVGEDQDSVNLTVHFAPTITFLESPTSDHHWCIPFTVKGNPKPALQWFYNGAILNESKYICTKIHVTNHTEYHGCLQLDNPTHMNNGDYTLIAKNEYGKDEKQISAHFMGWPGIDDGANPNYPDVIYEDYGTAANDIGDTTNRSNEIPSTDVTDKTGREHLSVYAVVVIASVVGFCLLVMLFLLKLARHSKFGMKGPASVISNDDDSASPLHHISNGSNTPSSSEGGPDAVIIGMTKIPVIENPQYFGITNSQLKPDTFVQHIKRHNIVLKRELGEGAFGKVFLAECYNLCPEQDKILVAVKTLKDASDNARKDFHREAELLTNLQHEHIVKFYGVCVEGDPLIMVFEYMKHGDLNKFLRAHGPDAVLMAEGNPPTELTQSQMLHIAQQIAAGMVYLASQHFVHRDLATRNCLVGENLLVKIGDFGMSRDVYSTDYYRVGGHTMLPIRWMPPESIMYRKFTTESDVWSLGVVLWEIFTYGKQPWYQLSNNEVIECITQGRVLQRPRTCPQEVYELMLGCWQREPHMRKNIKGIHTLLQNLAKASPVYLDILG
T4 sequence (Q8N4C8 whole entry): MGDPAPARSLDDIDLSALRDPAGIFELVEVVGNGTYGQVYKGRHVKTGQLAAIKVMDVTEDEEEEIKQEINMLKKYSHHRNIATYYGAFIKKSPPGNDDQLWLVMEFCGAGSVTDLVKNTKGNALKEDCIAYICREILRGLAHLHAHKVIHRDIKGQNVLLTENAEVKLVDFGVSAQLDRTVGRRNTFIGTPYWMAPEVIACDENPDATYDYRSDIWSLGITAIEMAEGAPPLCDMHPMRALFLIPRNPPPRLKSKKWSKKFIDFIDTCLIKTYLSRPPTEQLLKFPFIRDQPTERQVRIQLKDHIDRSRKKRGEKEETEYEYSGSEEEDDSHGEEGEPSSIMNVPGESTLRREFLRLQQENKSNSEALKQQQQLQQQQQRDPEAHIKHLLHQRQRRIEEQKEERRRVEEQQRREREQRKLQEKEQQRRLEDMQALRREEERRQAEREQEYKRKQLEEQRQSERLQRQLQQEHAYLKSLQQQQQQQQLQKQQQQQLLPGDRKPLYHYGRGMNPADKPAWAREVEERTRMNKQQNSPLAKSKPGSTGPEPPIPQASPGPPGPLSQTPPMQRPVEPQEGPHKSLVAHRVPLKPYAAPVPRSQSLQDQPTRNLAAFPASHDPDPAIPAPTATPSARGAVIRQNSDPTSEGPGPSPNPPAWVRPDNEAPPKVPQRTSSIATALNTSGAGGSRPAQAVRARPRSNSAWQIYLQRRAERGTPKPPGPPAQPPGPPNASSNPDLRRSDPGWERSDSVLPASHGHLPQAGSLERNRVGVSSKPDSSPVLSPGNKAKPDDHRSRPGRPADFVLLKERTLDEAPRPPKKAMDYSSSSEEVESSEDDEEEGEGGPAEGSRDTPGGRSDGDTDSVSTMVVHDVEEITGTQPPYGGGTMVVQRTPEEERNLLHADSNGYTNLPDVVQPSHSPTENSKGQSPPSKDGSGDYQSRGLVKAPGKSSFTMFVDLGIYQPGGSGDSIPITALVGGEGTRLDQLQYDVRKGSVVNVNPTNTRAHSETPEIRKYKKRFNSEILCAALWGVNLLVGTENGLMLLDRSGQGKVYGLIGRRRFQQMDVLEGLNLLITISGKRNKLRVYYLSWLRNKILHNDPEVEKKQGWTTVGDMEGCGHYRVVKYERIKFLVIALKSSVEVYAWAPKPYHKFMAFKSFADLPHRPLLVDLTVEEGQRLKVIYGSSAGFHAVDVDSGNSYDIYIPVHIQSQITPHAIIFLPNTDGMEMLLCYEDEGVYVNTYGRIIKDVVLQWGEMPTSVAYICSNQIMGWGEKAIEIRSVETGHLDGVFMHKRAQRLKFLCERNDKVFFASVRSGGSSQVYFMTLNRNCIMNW
T1 sequence (P06241 whole entry): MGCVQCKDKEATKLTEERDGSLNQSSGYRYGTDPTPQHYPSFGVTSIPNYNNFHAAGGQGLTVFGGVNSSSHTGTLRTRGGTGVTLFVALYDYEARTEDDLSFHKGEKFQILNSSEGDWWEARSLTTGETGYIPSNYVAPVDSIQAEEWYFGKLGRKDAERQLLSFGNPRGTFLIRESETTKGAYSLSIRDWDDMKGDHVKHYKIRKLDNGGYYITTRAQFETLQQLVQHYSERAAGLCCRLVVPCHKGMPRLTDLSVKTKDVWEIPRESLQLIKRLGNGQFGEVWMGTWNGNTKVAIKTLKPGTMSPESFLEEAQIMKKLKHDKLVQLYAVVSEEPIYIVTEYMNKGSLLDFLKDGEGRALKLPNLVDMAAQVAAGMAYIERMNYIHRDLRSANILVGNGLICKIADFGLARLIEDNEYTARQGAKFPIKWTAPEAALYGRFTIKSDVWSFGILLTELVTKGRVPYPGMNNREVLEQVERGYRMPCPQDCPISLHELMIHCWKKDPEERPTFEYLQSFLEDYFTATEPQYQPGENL
T33 sequence (Q96SB4 whole entry): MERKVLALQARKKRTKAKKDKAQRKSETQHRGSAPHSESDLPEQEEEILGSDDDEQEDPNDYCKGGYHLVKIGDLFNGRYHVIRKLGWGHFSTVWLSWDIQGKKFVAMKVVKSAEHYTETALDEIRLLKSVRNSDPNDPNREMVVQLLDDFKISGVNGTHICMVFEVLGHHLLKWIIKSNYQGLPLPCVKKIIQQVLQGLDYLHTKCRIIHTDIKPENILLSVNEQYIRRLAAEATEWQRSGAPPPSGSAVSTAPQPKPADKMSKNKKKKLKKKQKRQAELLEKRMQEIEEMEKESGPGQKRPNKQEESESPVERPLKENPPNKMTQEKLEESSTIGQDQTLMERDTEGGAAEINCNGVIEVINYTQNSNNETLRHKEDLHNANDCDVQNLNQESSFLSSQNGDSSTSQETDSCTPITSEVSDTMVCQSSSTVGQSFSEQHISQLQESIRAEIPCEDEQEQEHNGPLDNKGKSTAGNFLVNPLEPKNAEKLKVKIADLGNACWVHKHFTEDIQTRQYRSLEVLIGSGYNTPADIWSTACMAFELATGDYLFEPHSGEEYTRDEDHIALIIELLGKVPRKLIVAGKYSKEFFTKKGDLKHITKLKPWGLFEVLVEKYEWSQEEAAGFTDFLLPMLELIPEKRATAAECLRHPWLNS
T22 sequence (P09769 whole entry): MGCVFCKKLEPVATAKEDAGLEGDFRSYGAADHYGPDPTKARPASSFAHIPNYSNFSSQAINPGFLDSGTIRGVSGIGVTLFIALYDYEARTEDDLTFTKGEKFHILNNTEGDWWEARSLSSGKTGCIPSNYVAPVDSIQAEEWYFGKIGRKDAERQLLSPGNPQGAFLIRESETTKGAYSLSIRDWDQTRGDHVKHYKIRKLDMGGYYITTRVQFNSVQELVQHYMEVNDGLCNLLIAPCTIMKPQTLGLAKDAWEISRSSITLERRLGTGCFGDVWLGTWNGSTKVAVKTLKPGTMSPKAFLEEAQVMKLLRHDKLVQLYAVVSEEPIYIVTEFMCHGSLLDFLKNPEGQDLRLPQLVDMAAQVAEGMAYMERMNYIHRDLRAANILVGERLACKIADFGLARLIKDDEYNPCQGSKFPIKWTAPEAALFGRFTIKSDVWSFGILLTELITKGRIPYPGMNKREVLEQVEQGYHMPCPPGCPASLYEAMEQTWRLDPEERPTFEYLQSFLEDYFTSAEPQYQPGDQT
T9 sequence (O43318 1-303 limits assumed): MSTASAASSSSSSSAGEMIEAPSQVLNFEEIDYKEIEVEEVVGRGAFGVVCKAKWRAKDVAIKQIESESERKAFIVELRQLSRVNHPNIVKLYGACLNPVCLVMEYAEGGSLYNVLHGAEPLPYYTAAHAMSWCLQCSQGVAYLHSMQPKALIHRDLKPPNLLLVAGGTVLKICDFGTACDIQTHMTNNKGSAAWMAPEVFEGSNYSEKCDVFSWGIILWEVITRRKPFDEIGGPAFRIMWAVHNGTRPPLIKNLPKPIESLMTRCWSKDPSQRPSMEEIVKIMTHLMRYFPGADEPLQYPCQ
T23 sequence (Q86Y07 whole entry): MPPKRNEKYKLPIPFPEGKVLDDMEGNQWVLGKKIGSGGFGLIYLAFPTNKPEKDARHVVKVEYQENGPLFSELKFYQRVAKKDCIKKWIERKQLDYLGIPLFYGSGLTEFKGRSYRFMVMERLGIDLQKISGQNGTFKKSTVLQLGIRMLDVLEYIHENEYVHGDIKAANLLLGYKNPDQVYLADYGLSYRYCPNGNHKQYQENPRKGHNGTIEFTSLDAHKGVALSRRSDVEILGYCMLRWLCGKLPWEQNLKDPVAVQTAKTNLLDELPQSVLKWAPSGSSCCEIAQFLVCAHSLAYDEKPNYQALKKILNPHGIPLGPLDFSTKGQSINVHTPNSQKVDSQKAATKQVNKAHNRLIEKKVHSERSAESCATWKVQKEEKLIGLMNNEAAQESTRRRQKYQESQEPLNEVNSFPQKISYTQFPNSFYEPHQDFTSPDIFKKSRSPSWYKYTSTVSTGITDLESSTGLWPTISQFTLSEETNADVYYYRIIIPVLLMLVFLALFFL
T6 sequence (Q9HC98 whole entry): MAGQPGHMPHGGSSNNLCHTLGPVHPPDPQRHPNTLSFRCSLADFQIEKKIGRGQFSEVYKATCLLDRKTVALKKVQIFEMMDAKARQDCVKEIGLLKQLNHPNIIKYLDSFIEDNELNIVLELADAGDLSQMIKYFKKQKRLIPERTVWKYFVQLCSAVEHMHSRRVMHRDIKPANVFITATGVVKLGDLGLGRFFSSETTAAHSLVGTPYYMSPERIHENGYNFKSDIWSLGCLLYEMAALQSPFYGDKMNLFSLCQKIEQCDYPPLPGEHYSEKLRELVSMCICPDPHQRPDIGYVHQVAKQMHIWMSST

## COCCN1C[C@@H](NC(=O)Nc2sc(C(C)C)nc2-c2ccccc2)[C@H](c2ccccc2)C1 [Example 48, 1-(2-isopropyl-4-phenylthiazol-5-yl)-3-((3S,4R)-1-(2-methoxyethyl)-4-phenylpyrrolidin-3-yl)urea]
Fyn
  Avg POC: 108.5% of control
CDK5/p25
  Avg POC: 110.5% of control
MAP4K2
  Avg POC: 110.5% of control
MINK
  Avg POC: 117% of control
CDK3/cyclinE
  Avg POC: 99.5% of control
NEK6
  Avg POC: 121.5% of control
Met
  Avg POC: 109% of control
LIMK1
  Avg POC: 104% of control
TAK1
  Avg POC: 104% of control
ARK5
  Avg POC: 106% of control
HIPK3
  Avg POC: 82% of control
JNK2alpha2
  Avg POC: 93.5% of control
PKCdelta
  Avg POC: 119.5% of control
PKCtheta
  Avg POC: 108.5% of control
FGFR2
  Avg POC: 106.5% of control
EphA8
  Avg POC: 122.5% of control
SRC
  Avg POC: 124% of control
PAK2
  Avg POC: 101.5% of control
Pim-2
  Avg POC: 104% of control
NEK7
  Avg POC: 107% of control
Plk2
  Avg POC: 99.5% of control
Fgr
  Avg POC: 111.5% of control
VRK2
  Avg POC: 98% of control
MYLK
  Avg POC: 107% of control
DRAK1
  Avg POC: 104% of control
CDK1/cyclinB
  Avg POC: 106% of control
p38gamma
  Avg POC: 120.5% of control
FAK2
  Avg POC: 107.5% of control
ULK2
  Avg POC: 98.5% of control
PRKG1alpha
  Avg POC: 106% of control
ALK
  Avg POC: 125% of control
LKB1
  Avg POC: 114.5% of control
SRPK1
  Avg POC: 115.5% of control
TrkB
  Avg POC: 9% of control
